Measurements taken from publication PMC7321065, “Discovery of New Schiff Bases Tethered Pyrazole Moiety: Design, Synthesis, Biological Evaluation, and Molecular Docking Study as Dual Targeting DHFR/DNA Gyrase Inhibitors with Immunomodulatory Activity” (Molecules, 2020).
Converted amounts (≈) assume the structure as drawn. Read-outs that look alike come from different tables or passages of the source.

Legend:
[1] = test system: P. aeruginosa ATCC BAA-2111; experiment: Inhibition zone against MDRB, agar plate diffusion; format: cell-based
E. coli ATCC BAA-196 [2] = experiment: Inhibition zone against MDRB, agar plate diffusion; format: cell-based
S. aureus ATCC 33591 [3] = experiment: Inhibition zone against MDRB, agar plate diffusion; format: cell-based
[4] = test system: S. aureus ATCC 43300 (MRSA); experiment: Inhibition zone against MDRB, agar plate diffusion; format: cell-based
[5] = test system: P. aeruginosa ATCC BAA-2111; experiment: MIC/MBC against MDRB, paper disk diffusion; format: cell-based; conditions: Pseudomonas aeruginosa, ATCCBAA2111
Source text: (§1) The inhibition zone (IZ, mm±standard deviation) of pyrazole Schiff bases ( 6b, 7b, 7c, 8a, 8d and 9b) was
(§2) measurement according to the agar plate diffusion method against a panel of multidrug-resistant bacteria
(MDRB). […]

[6] = test system: S. aureus ATCC 43300 (MRSA); experiment: MIC/MBC against MDRB, paper disk diffusion; format: cell-based; conditions: Staphylococcus aureus
Source text: as §1, §2
(MDRB). […]

E. coli ATCC BAA-196 [7] = experiment: MIC/MBC against MDRB, paper disk diffusion; format: cell-based; conditions: Escherichia coli, ATCCBAA196
Source text: as §1, §2
(MDRB). […]

S. aureus ATCC 33591 [8] = experiment: MIC/MBC against MDRB, paper disk diffusion; format: cell-based; conditions: Staphylococcus aureus, ATCC33591
Source text: as §1, §2
(MDRB). […]

Pseudomonas aeruginosa [9] = experiment: MIC/MBC, paper disk diffusion; format: cell-based; conditions: Pseudomonas aeruginosa
Experimental: (§3) Antimicrobial activities of the newly formed Schiff bases (6a–d, 7a–d, 8a–d, and 9a–d) and reference drugs were evaluated against three Gram-positive, three Gram-negative, and two fungi strain at Al-Azhar University, Cairo, Egypt. The inhibition zones (IZ, in mm ± standard deviation) and the minimal inhibitory concentration (MIC) (μg/mL) were determined by the conventional paper disk diffusion method.
(§4) In Vitro Antimicrobial Activities […]
(§5) DMSO was used for dissolving […]
(§6) the tested microorganisms.
(§7) The minimum inhibitory concentration (MIC), the minimum bactericidal concentration (MBC, µg/ml) and […]
(§8) and 9b) were determined by the conventional technique termed paper disk diffusion, by applying paper […]
(§9) Bacteria were grown on nutrient agar medium, while fungi and yeast were grown on Sabouraud agar medium. The purified streptomycin was dissolved in […]
(§10) inoculated with test organism. Growth inhibition was examined after 24 hr. from incubation at 37 °C for bacteria and after 72 hr. incubation at 27 °C for fungi and yeast. Each test was repeated three times. MIC was expressed as the lowest concentration inhibiting test organism’s growth. […]

Escherichia coli [10] = experiment: MIC/MBC, paper disk diffusion; format: cell-based; conditions: Escherichia coli
Experimental: as §3, §4, §5, §6, §7, §8, §9, §10

Bacillus subtilis [11] = experiment: MIC/MBC, paper disk diffusion; format: cell-based
Experimental: as §3, §4, §5, §6, §7, §8, §9, §10

Enterococcus faecalis [12] = experiment: MIC/MBC, paper disk diffusion; format: cell-based
Experimental: as §3, §4, §5, §6, §7, §8, §9, §10

Staphylococcus aureus [13] = experiment: MIC/MBC, paper disk diffusion; format: cell-based; conditions: Staphylococcus aureus
Experimental: as §3, §4, §5, §6, §7, §8, §9, §10

Salmonella typhi [14] = experiment: MIC/MBC, paper disk diffusion; format: cell-based; conditions: Salmonella enterica, S. typhi
Experimental: as §3, §4, §5, §6, §7, §8, §9, §10

Pseudomonas aeruginosa [15] = experiment: Inhibition zone, agar plate diffusion; format: cell-based; conditions: read-out: Inhibition zone (IZ)
Experimental: as §3
(§11) In Vitro Antimicrobial Activities
(§12) The antimicrobial activities inhibition zone (IZ, mm±standard deviation) of pyrazole Schiff bases ( 6a-d , 7a-d, 8a-d and 9a-d ) was measurement according to the agar plate diffusion method. Briefly, 100 µl of the […]
(§13) […] of each sample (at 0.5 mg/mL) was added to each well (10 mm diameter holes cut in the agar gel). The plates were incubated for 24 h at 37 °C (for bacteria and yeast) and for 72 h at 27 °C (for filamentous fungi), each test was repeated three times. After incubation, the microorganism's growth was observed. […]
(§14) drugs while Amphotericin B was used as standard antifungal drug. The resulting inhibition zone diameters were measured in millimeters and used as criterion for the antimicrobial activity. Solvent controls (DMSO) were included in every experiment as negative controls. DMSO was used for dissolving […]
(§15) the tested microorganisms. […]

Escherichia coli [16] = experiment: Inhibition zone, agar plate diffusion; format: cell-based; conditions: read-out: Inhibition zone (IZ)
Experimental: as §3, §11, §12, §13, §14, §15

Bacillus subtilis [17] = experiment: Inhibition zone, agar plate diffusion; format: cell-based; conditions: read-out: Inhibition zone (IZ)
Experimental: as §3, §11, §12, §13, §14, §15

Enterococcus faecalis [18] = experiment: Inhibition zone, agar plate diffusion; format: cell-based; conditions: read-out: Inhibition zone (IZ)
Experimental: as §3, §11, §12, §13, §14, §15

[19] = test system: hepatocellular carcinoma cell line (HepG2); experiment: Antiproliferative activity, MTT assay; format: cell-based, human; conditions: Homo sapiens, HepG2, 48 h, read-out: IC50 HepG-2
Experimental: (§16) 3-[4, 5-Dimethyl-2-thiazolyl)-2, 5-diphenyl-2 H-tetrazolium bromide (MTT) protocol is based on the cleavage of the tetrazolium salt by mitochondrial dehydrogenases in viable cells. Cells were dispensed in a 96 well sterile microplate (5 x 10^4 cells/well), and incubated at 37 °C with series of different concentrations, in DMSO, of each tested compound or Doxorubicin ® (positive control) for 48 h in a serum free medium prior to the MTT assay. After incubation, media were carefully removed, 40 µL of MTT (2.5 mg/mL) were added to each well and then incubated for an additional 4 h. The purple formazan dye crystals were solubilized by the addition of 200 µL of DMSO. The absorbance was measured at 590 nm using a SpectraMax® Paradigm® Multi-Mode microplate reader. The relative cell viability was expressed as the mean percentage of viable cells compared to the untreated control cells.
(§17) All experiments were conducted in triplicate and repeated in three different days. All the values were represented as mean ± SD. IC 50s were determined by probit analysis using SPSS software program (SPSS

[20] = test system: mammary gland breast cancer cell line (MCF-7); experiment: Antiproliferative activity, MTT assay; format: cell-based, human; conditions: Homo sapiens, MCF7, 48 h, read-out: IC50 MCF-7
Experimental: as §16, §17

Fusarium oxysporum [21] = experiment: MIC/MFC, paper disk diffusion; format: cell-based; conditions: Fusarium oxysporum
Experimental: as §3, §4, §5, §6, §7, §8, §9, §10

Candida albicans [22] = experiment: MIC/MFC, paper disk diffusion; format: cell-based; conditions: Candida albicans
Experimental: as §3, §4, §5, §6, §7, §8, §9, §10

Fusarium oxysporum [23] = experiment: Inhibition zone, agar plate diffusion; format: cell-based; conditions: read-out: Inhibition zone (IZ)
Experimental: as §3, §11, §12, §13, §14, §15
(§18) Bacteria were grown on nutrient agar medium, while fungi and yeast were grown on Sabouraud agar medium. […]

Staphylococcus aureus [24] = experiment: Inhibition zone, agar plate diffusion; format: cell-based; conditions: read-out: Inhibition zone (IZ)
Experimental: as §3, §11, §12, §13, §14, §15, §18

Salmonella typhi [25] = experiment: Inhibition zone, agar plate diffusion; format: cell-based; conditions: Salmonella enterica, St, mm ± standard deviation, sample at 0.5 mg/mL, read-out: Inhibition zone (IZ)
Experimental: as §3, §11, §12, §13, §14, §15, §18

Candida albicans [26] = experiment: Inhibition zone, agar plate diffusion; format: cell-based; conditions: read-out: Inhibition zone (IZ)
Experimental: as §3, §11, §12, §13, §14, §15, §18

In the case of `CCn1cc(C(=O)O)c(=O)c2cc(F)c(N3CCNCC3)cc21` [Norfloxacin, reference compound], the “Mean Diameter of Inhibition Zone against MDRB” value [1] is reported as 24 ± 0.47 mm, the “Mean Diameter of Inhibition Zone against MDRB” value (E. coli ATCC BAA-196 [2]) is reported as 27 ± 0.98 mm and the “Mean Diameter of Inhibition Zone against MDRB” value (S. aureus ATCC 33591 [3]) is reported as 26 ± 0.5 mm. For the same molecule, the “Mean Diameter of Inhibition Zone against MDRB” value [4] was 25 ± 0.50 mm, the MBC ([5]; P. aeruginosa ATCC BAA-2111, read-out: MBC) was 4.69 µg/mL (≈ 14.7 µM) and the MIC ([5]; P. aeruginosa ATCC BAA-2111, read-out: MIC) was 3.13 µg/mL (≈ 9.8 µM). It also gave an MBC ([6]; S. aureus ATCC 43300, read-out: MBC) of 2.81 µg/mL (≈ 8.8 µM), an MIC ([6]; S. aureus ATCC 43300, read-out: MIC) of 1.25 µg/mL (≈ 3.91 µM) and an MBC (E. coli ATCC BAA-196 [7]; E. coli ATCC BAA-196, read-out: MBC) of 3.53 µg/mL (≈ 11.1 µM). For the same molecule, the MIC (E. coli ATCC BAA-196 [7]; E. coli ATCC BAA-196, read-out: MIC) was 1.57 µg/mL (≈ 4.92 µM), the MBC (S. aureus ATCC 33591 [8]; S. aureus ATCC 33591, read-out: MBC) was 1.56 µg/mL (≈ 4.89 µM) and the MIC (S. aureus ATCC 33591 [8]; S. aureus ATCC 33591, read-out: MIC) was 0.78 µg/mL (≈ 2.44 µM).

For `COc1ccc(Nc2n[nH]c(N=Cc3ccc(N4CCCCC4)cc3)c2C(=O)Nc2ccc(Cl)cc2)cc1` [8d, N-(p-Chlorophenyl)-3-(p-methoxyphenylamino)-5-(4-(piperidin-1-yl)benzylideneamino)-1H-pyrazole-4-carboxamide], the “Mean Diameter of Inhibition Zone against MDRB” value [1] was 25 ± 0.99 mm, the MIC (Pseudomonas aeruginosa [9]) was 27.8 µg/mL (≈ 52.5 µM) and the MBC (Pseudomonas aeruginosa [9]; P. aeruginosa) was 55.5 µg/mL (≈ 105 µM). For the same molecule, the MIC (Escherichia coli [10]) was 7.81 µg/mL (≈ 14.8 µM), the MBC (Escherichia coli [10]; E. coli) was 15.6 µg/mL (≈ 29.5 µM) and the “Fold more potent than Tetracycline (MIC)” value (Bacillus subtilis [11]; B. subtilis) was 8 fold. The MIC (Bacillus subtilis [11]; Bacillus subtilis) was 3.9 µg/mL (≈ 7.37 µM), the MBC (Bacillus subtilis [11]; Bacillus subtilis, B. subtilis) was 6.63 µg/mL (≈ 12.5 µM) and the MIC (Enterococcus faecalis [12]) was 15.6 µg/mL (≈ 29.5 µM). It also gave an MBC (Enterococcus faecalis [12]; E. faecalis) of 31.2 µg/mL (≈ 59.1 µM), an MIC (Staphylococcus aureus [13]) of 7.81 µg/mL (≈ 14.8 µM) and an MBC (Staphylococcus aureus [13]; S. aureus) of 15.6 µg/mL (≈ 29.5 µM). For the same molecule, the MIC (Salmonella typhi [14]) was 18.5 µg/mL (≈ 35 µM), the MBC (Salmonella typhi [14]; read-out: MBC) was 36.5 µg/mL (≈ 69 µM) and the “Mean Diameter of Inhibition Zone against MDRB” value (E. coli ATCC BAA-196 [2]) was 16 ± 0.11 mm. The zone of inhibition at 500 µg/mL (Pseudomonas aeruginosa [15]) was 21 ± 0.2 mm, the zone of inhibition at 500 µg/mL (Escherichia coli [16]) was 26 ± 0.11 mm and the zone of inhibition at 500 µg/mL (Bacillus subtilis [17]) was 24 ± 0.5 mm. The zone of inhibition at 500 µg/mL (Enterococcus faecalis [18]) was 23 ± 0.65 mm, the IC50 [19] was 2.63 ± 0.44 µM and the IC50 [20] was 3.69 ± 0.22 µM. It also gave an MFC (Fusarium oxysporum [21]) of 56.2 µg/mL (≈ 106 µM), an MIC (Fusarium oxysporum [21]) of 31.2 µg/mL (≈ 59.1 µM) and an MFC (Candida albicans [22]) of 17.6 µg/mL (≈ 33.2 µM). For the same molecule, the MIC (Candida albicans [22]) was 9.25 µg/mL (≈ 17.5 µM), the “Mean Diameter of Inhibition Zone against MDRB” value (S. aureus ATCC 33591 [3]) was 21 ± 0.23 mm and the “Mean Diameter of Inhibition Zone against MDRB” value [4] was 18 ± 0.5 mm. It also gave a zone of inhibition at 500 µg/mL (Fusarium oxysporum [23]) of 21 ± 0.16 mm, a zone of inhibition at 500 µg/mL (Staphylococcus aureus [24]) of 25 ± 0.77 mm and a zone of inhibition at 500 µg/mL (Salmonella typhi [25]) of 23 ± 0.65 mm. For the same molecule, the zone of inhibition at 500 µg/mL (Candida albicans [26]) was 25 ± 0.33 mm, the MBC [5] was 11.9 µg/mL (≈ 22.4 µM) and the MIC [5] was 6.25 µg/mL (≈ 11.8 µM). The MBC [6] was 31.2 µg/mL (≈ 59.1 µM), the MIC [6] was 15.6 µg/mL (≈ 29.5 µM) and the MBC (E. coli ATCC BAA-196 [7]) was 31.2 µg/mL (≈ 59.1 µM). For the same molecule, the MIC (E. coli ATCC BAA-196 [7]) was 15.6 µg/mL (≈ 29.5 µM), the MBC (S. aureus ATCC 33591 [8]) was 7.41 µg/mL (≈ 14 µM) and the MIC (S. aureus ATCC 33591 [8]) was 3.9 µg/mL (≈ 7.37 µM).
